Experimental data reported in EP4389156A1, “RA[…] LIGAND COMPOUNDS AND PRECURSORS THEREOF” (Technische Universität München, priority 2022, dated 2024).
Several values for one entry are separate records, joined by “and”; a condition that tells them apart may be missing. Identical values can stand only once.

Key:
[1] = system: LNCaP cells; assay: PSMA-mediated internalization into LNCaP cells; type: cell-based; conditions: 1 h, 37°C, n = 3, as percentage of reference [125I]IBA-KuE, mean ± SD
Method: (§1) Competitive binding studies were carried out in analogy to a previously reported procedure. As a modification the non-radiolabeled standard competitor (((S)-1-carboxy-5-(4-(iodo)benzamido)pentyl)carbamoyl)-L-glutamic acid (IBA-KuE) was applied in increasing concentrations (10^-5 - 10^-11 M/well, n = 3 each) whereas the novel PSMA-binding compounds of interest were applied as ^99mTc-labeled radioligands (0.2 nM/well). In this inversed experimental approach, higher values correspond to higher affinities and are referred to as inverse IC50. Poly-L-lysine coated 24-well plates were used (n = 3). Data are given as mean ± SD. To determine the cellular uptake of the ^99mTc-labeled PSMA ligands into LNCaP cells by means of PSMA-mediated internalization at 1 h, a previously reported protocol was applied with assay concentrations of 1.0 nM and 0.2 nM for ^99mTc-labeled PSMA ligands and the reference compound [^125I]IBA-KuE, respectively. Data are corrected for non-specific binding and normalized to the specific internalization of the reference. Results are given as mean ± SD.

[2] = biological target: T1, human serum albumin (HSA) (Homo sapiens, UniProt P02768); assay: HSA binding by high performance affinity chromatography (HPAC); type: in vitro ADME; conditions: uncomplexed compounds, n = 1
T1 construct: purchased Daicel, Tokyo, Japan H13H-2433
Method: HSA binding of the uncomplexed PSMA ligands was determined according to a previously published procedure via HPLC (Valko, K.; Nunhuck, S.; Bevan, C.; Abraham, M. H.; Reynolds, D. P., Fast gradient HPLC method to determine compounds binding to human serum albumin. Relationships with octanol/water and immobilized artificial membrane lipophilicity. J Pharm Sci. 2003, 92, 2236-2248). A Chiralpak HSA column (50 × 3 mm, 5 µm, H13H-2433, Daicel, Tokyo, Japan) was used at a constant flow rate of 0.5 mL/min at rt. Mobile phase A was a freshly prepared 50 mM aqueous solution of NH4OAc (pH 6.9) and mobile phase B was isopropanol (HPLC grade, VWR). The applied gradient for all experiments was 100% A (0 to 3 min), followed by 80% A (3 to 40 min). Prior to the experiment, the column was calibrated using nine reference substances with a HSA binding, known from literature, in the range of 13 to 99% (Valko, K.; Nunhuck, S.; Bevan, C.; Abraham, M. H.; Reynolds, D. P., J Pharm Sci. 2003, 92, 2236-2248; Yamazaki, K.; Kanaoka, M., Computational prediction of the plasma protein-binding percent of diverse pharmaceutical compounds. J Pharm Sci. 2004, 93, 1480-1494). All substances, including the examined PSMA ligands, were dissolved in a 1:1 mixture (v/v) of isopropanol and a 50 mM aqueous solution of NH4OAc (pH 6.9) with a final concentration of 0.5 mg/mL. Non-linear regression was established with the OriginPro 2016G software (Northampton, United States).

[3] = system: LNCaP tumor-bearing CB17-SCID mice; assay: Biodistribution study in LNCaP tumor-bearing mice; type: in vivo; conditions: 6 h p.i.; for uptake in % iD/g adrenals / uptake in % iD/g blood / uptake in % iD/g bone / uptake in % iD/g heart / uptake in % iD/g intestine / uptake in % iD/g kidney / uptake in % iD/g liver / uptake in % iD/g lung / uptake in % iD/g muscle / uptake in % iD/g pancreas / uptake in % iD/g parotid gland / uptake in % iD/g spleen / uptake in % iD/g stomach / uptake in % iD/g submandibular gland / uptake in % iD/g tumor: male LNCaP tumor-bearing CB17-SCID mice, mean; for uptake in % iD/g adrenals / uptake in % iD/g blood / uptake in % iD/g bone / uptake in % iD/g heart / uptake in % iD/g intestine / uptake in % iD/g kidney / uptake in % iD/g liver / uptake in % iD/g lung / uptake in % iD/g muscle / uptake in % iD/g pancreas / uptake in % iD/g parotid gland / uptake in % iD/g spleen / uptake in % iD/g stomach / uptake in % iD/g submandibular gland / uptake in % iD/g tumor / tumor-to-background ratio adrenals / tumor-to-background ratio blood / tumor-to-background ratio bone / tumor-to-background ratio heart / tumor-to-background ratio intestine / tumor-to-background ratio kidney / tumor-to-background ratio liver / tumor-to-background ratio lung / tumor-to-background ratio muscle / tumor-to-background ratio pancreas / tumor-to-background ratio parotid gland / tumor-to-background ratio spleen / tumor-to-background ratio stomach / tumor-to-background ratio submandibular gland: n = 4-5; for tumor-to-background ratio adrenals / tumor-to-background ratio blood / tumor-to-background ratio bone / tumor-to-background ratio heart / tumor-to-background ratio intestine / tumor-to-background ratio kidney / tumor-to-background ratio liver / tumor-to-background ratio lung / tumor-to-background ratio muscle / tumor-to-background ratio pancreas / tumor-to-background ratio parotid gland / tumor-to-background ratio spleen / tumor-to-background ratio stomach / tumor-to-background ratio submandibular gland: mean of ratios of individual animals; for Blood activity levels increased, as compared to [^99mTc]Tc-N4-PSMA-12: relative to [^99mTc]Tc-N4-PSMA-12
Method: All animal experiments were conducted in accordance with general animal welfare regulations in Germany (German animal protection act, in the edition of the announcement, dated May 18th, 2006, as amended by Article 280 of June 19th 2020, approval no. ROB-55.2-1-2532.Vet_02-18-109 by the General Administration of Upper Bavaria) and the institutional guidelines for the care and use of animals. Male CB17-SCID mice were purchased from Charles River (Sulzfeld, Germany) and arrived at the in-house animal facility to acclimate at least 1 week before the start of the experiment. Tumor xenografts were established by subcutaneous inoculation of LNCaP cells (approx. 2 × 10^7 cells in 200 µL of a 1:1 mixture of Cultrex BME (R&D Systems, Minneapolis, United States) and DMEM/Ham's F-12) onto the right shoulder of 6-8 weeks old male CB17-SCID mice. The animals were used for experiments when tumors had grown to a size of 5-10 mm in diameter. Criteria for the exclusion of animals from the experiment were weight loss higher than 20%, tumor size above 1.5 cm^3, ulceration of the tumor, respiratory distress or change of behavior. […] Neither randomisation nor blinding was applied in the allocation of the experiments. Quarterly health monitoring was performed according to the FELASA recommendations.
Biodistribution Studies. The ^99mTc-labeled radioligands (2.7 ± 0.7 MBq, 82 ± 20 pmol) were injected into a lateral tail vein of LNCaP-tumor bearing mice (n = 4-5) under isoflurane anesthesia. Animals were sacrificed at 6 h post injection (p.i.) by carbon dioxide inhalation and blood withdrawal via cardiac puncture. Blood and tissues of interest were collected, weighed and the activity measured in a γ-counter. Radioligand uptake is given in percent of the injected dose per gram of tissue (% ID/g) and results are presented as mean ± SD.
In line with the above, the biodistribution study of [^99mTc]Tc-N4-PSMA-21 was carried out with n = 5 animals ("data set I"). […] Kidney uptake of mouse #3 (36.17 %ID/g) exceeded the value obtained from the other four animals (4.58 ± 1.44 %ID/g, mean ± SD) 7.9-fold or by more than 20 standard deviations. In addition, tumor uptake of mouse #3 (21.92 %ID/g) exceeded the value obtained from the other four animals (11.02 ± 2.22 %ID/g, mean ± SD) 2.0-fold or by more than 4 standard deviations Due to the uncertainty whether these huge deviations arise from an experimental error or might be related to strongly deviating metabolic processes e.g. abnormal kidney function in mouse #3, the study primarily presents and discusses the data set based on the other four animals (n = 4, "data set II"). A thorough evaluation and comparison was, however, also carried out including mouse #3.

[4] = biological target: T2, PSMA (Homo sapiens, UniProt Q04609); assay: Competitive binding study, inverse IC50 (99mTc-radioligand versus increasing IBA-KuE); conditions: inverse IC50: IBA-KuE competes against 99mTc-radioligand (0.2 nM/well); higher values = higher affinity; 1 h, 4°C, n = 3, mean ± SD; read-out: IC50, inv.
T2 construct: endogenous in cells; printed for the internalization assay of the same paragraph
Method: as §1

[5] = Lipophilicity (logD7.4), shake-flask method; type: physicochemical; conditions: n-octanol/PBS (pH 7.4), n = 8, mean ± SD
Method: The lipophilicity of ^99mTc-labeled PSMA ligands, expressed as distribution coefficient (logD7.4), was determined using the shake-flask method. A solution of approximately 1 MBq of radioligand in 1 mL of a 1:1 mixture of PBS (pH = 7.4) and n-octanol (n = 8) was vortexed vigorously for 3 min. After centrifugation at 9000 rpm for 5 min aliquots of both phases (200 µL n-octanol, 50 µL PBS) were collected and the activity was quantified in a γ-counter. logD7.4 values were calculated as decadic logarithm of the activity concentration ratio between the n-octanol phase and the aqueous phase. Data are given as mean ± standard deviation (SD). Binding to human plasma was determined by incubation of radioligands in human plasma (2 nM concentration, 37 °C for 30 min) and subsequent ultrafiltration (250 µL aliquots, 3200 rpm, 40 min) in Centrifree® ultrafiltration devices (Merck Millipore, Cork, Ireland). The fraction bound to human plasma proteins was calculated as the ratio of unfiltered activity and the total activity in the ultrafiltration device. Measurements were performed in three independent experiments, each with two replicates (n = 6, data are given as mean ± SD). All values were corrected for non-specific binding (control experiments in PBS).

[6] = single outlier animal (mouse #3), excluded from data set II

T1 sequence (P02768 25-609): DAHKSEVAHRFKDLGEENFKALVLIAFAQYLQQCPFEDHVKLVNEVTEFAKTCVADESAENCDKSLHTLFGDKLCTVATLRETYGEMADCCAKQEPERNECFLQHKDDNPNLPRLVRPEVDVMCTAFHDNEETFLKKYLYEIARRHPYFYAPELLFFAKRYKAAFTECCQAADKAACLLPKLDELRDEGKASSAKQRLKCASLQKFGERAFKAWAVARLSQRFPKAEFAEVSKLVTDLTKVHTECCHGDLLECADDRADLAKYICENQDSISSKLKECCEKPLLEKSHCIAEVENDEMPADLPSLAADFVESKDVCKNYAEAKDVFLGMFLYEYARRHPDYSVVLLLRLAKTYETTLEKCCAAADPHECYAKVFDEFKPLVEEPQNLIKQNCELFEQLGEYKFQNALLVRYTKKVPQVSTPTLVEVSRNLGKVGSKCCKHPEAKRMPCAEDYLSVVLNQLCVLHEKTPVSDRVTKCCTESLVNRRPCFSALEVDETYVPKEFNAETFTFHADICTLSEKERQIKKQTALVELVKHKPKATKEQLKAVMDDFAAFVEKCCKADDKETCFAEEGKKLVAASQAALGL
T2 sequence (Q04609 whole entry): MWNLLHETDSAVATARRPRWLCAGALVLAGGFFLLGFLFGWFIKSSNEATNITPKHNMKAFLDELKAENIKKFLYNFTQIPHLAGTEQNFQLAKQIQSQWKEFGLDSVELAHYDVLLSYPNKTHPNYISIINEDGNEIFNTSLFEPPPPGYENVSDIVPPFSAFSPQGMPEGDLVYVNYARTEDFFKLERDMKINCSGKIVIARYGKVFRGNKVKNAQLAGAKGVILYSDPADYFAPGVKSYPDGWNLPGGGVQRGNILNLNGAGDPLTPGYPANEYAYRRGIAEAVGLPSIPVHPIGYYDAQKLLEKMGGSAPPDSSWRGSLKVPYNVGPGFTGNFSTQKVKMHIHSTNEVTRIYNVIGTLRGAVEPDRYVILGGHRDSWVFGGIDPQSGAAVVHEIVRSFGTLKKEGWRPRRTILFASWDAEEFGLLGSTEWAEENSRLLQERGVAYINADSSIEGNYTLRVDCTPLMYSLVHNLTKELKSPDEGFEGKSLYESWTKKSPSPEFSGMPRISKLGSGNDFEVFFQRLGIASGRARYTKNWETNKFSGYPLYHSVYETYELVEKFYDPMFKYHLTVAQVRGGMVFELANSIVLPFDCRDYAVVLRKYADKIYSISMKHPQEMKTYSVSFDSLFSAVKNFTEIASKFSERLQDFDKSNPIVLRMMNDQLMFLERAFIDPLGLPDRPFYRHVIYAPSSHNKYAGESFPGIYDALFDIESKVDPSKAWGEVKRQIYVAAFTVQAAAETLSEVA

| SMILES | internalization (% IBA-KuE) [1] [%] | HSA-binding (HPAC) (%) [2] [%] | uptake in % iD/g adrenals [3] [% ID/g] | uptake in % iD/g blood [3] [% ID/g] | uptake in % iD/g bone [3] [% ID/g] | uptake in % iD/g heart [3] [% ID/g] | uptake in % iD/g intestine [3] [% ID/g] | uptake in % iD/g kidney [3] | uptake in % iD/g liver [3] [% ID/g] | uptake in % iD/g lung [3] [% ID/g] | uptake in % iD/g muscle [3] [% ID/g] | uptake in % iD/g pancreas [3] [% ID/g] | uptake in % iD/g parotid gland [3] [% ID/g] | uptake in % iD/g spleen [3] [% ID/g] | uptake in % iD/g stomach [3] [% ID/g] | uptake in % iD/g submandibular gland [3] [% ID/g] | uptake in % iD/g tumor [3] | tumor-to-background ratio adrenals [3] | tumor-to-background ratio blood [3] | tumor-to-background ratio bone [3] | further results |
| --- | --- | --- | --- | --- | --- | --- | --- | --- | --- | --- | --- | --- | --- | --- | --- | --- | --- | --- | --- | --- | --- |
| CC(C)(C)[Si](O)(c1ccc(C(=O)NC[C@@H](NC(=O)[C@@H](Cc2ccc(N)cc2)NC(=O)C(CNCCN)CNCCN)C(=O)N[C@H](CCCCNC(=O)CCC(=O)NCCC[C@@H](NC(=O)CC[C@H](NC(=O)N[C@@H](CCC(=O)O)C(=O)O)C(=O)O)C(=O)O)C(=O)O)cc1)C(C)(C)C.[O]=[99Tc+]=[O] [[^99mTc]Tc-N4-PSMA-21] | 180 ± 4 | 57.3 | 0.5759 | 0.1074 | 0.0828 | 0.0568 | 1.1034 | 4.58 ± 1.44 % ID/g and 4.6 ± 1.4 % ID/g and 4.5811 % ID/g | 0.5752 | 0.1250 | 0.0153 | 0.0335 | 0.1105 | 1.3064 | 0.1458 | 0.3009 | 11.02 ± 2.22 % ID/g and 11.0155 % ID/g | 19.85 | 125.55 | 207.38 | tumor-to-background ratio heart [3]: 201.50; tumor-to-background ratio intestine [3]: 52.29; tumor-to-background ratio kidney [3]: 2.57; tumor-to-background ratio liver [3]: 23.75; tumor-to-background ratio lung [3]: 99.35; tumor-to-background ratio muscle [3]: 736.44; tumor-to-background ratio pancreas [3]: 350.74; tumor-to-background ratio parotid gland [3]: 101.59; tumor-to-background ratio spleen [3]: 10.32; tumor-to-background ratio stomach [3]: 114.49; tumor-to-background ratio submandibular gland [3]: 50.80; Blood activity levels increased, as compared to [^99mTc]Tc-N4-PSMA-12 [3]: 5.4 fold; Kidney uptake of mouse #3 [3, 6]: 36.17 %ID/g; tumor uptake of mouse #3 [3, 6]: 21.92 %ID/g; inverse IC50 [4]: 11.1 ± 1.42 nM; logD7.4 [5]: -3.13 ± 0.05 |
| CC(C)(C)[Si](O)(c1ccc(C(=O)NC[C@@H](NC(=O)[C@@H](Cc2ccccc2)NC(=O)C(CNCCN)CNCCN)C(=O)N[C@H](CCCCNC(=O)CCC(=O)NCCC[C@@H](NC(=O)CC[C@H](NC(=O)N[C@@H](CCC(=O)O)C(=O)O)C(=O)O)C(=O)O)C(=O)O)cc1)C(C)(C)C.[O]=[99Tc+]=[O] [[^99mTc]Tc-N4-PSMA-13] | 164 ± 15 | 89.9 | 0.5170 | 0.0320 | 0.0862 | 0.0456 | 0.2661 | 6.6 ± 4.8 % ID/g and 6.5974 % ID/g | 0.2618 | 0.1108 | 0.0127 | 0.0270 | 0.1056 | 0.6314 | 0.1348 | 0.3069 | 12.5347 % ID/g | 24.50 | 409.29 | 142.94 | tumor-to-background ratio heart [3]: 276.38; tumor-to-background ratio intestine [3]: 64.62; tumor-to-background ratio kidney [3]: 2.45; tumor-to-background ratio liver [3]: 50.17; tumor-to-background ratio lung [3]: 113.30; tumor-to-background ratio muscle [3]: 1013.12; tumor-to-background ratio pancreas [3]: 496.73; tumor-to-background ratio parotid gland [3]: 119.35; tumor-to-background ratio spleen [3]: 20.57; tumor-to-background ratio stomach [3]: 101.82; tumor-to-background ratio submandibular gland [3]: 41.60; Blood activity levels increased, as compared to [^99mTc]Tc-N4-PSMA-12 [3]: 1.6 fold; inverse IC50 [4]: 9.98 ± 0.99 nM; logD7.4 [5]: -2.78 ± 0.05 |
